Test results: paper PMC4359714 (Naunyn-Schmiedeberg's Archives of Pharmacology, 2015)
pIC50: −log10 of the molar value.

Columns and labels:
rat TRPV3 = biological target: T1, rat TRPV3 (Rattus norvegicus, UniProt Q4QYD9); experiment: Luminescence (aequorin) readout of intracellular calcium, CHO cells expressing rat TRPV3, 2-APB activation; format: cell-based; details: 200 uM 2-APB, read-out: rTRPV3 IC50
T1 construct: expressed in transfected cells; host or cells: CHO, T-REx tetracycline-inducible system (Invitrogen), co-transfected with aequorin
T1 sequence (Q4QYD9 1-791): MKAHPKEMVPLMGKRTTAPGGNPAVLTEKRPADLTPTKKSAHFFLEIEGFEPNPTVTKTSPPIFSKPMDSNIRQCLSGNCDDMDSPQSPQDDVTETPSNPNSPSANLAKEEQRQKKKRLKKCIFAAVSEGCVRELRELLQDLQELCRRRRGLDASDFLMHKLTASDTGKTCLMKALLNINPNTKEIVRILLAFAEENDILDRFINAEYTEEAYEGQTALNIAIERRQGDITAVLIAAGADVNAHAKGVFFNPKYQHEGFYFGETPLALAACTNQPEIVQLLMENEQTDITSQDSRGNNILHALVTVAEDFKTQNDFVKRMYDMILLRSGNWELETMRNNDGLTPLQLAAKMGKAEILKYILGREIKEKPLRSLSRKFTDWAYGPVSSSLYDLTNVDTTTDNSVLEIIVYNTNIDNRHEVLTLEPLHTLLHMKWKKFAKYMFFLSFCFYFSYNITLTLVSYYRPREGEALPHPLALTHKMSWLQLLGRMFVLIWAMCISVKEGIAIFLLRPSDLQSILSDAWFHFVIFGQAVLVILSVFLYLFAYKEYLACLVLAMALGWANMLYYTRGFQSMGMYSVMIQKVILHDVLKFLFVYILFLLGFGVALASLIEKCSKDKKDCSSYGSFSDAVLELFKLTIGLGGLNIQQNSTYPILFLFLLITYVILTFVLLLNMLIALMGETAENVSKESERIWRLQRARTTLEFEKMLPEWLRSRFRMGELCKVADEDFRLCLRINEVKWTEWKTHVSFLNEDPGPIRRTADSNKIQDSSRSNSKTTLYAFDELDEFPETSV
Excerpt: Stable Chinese hamster ovary (CHO) cell lines expressing rat TRPA1, rat TRPM8, rat TRPV3, and human TRPV4 were generated using the tetracycline-inducible T-REx™ expression system from Invitrogen (Carlsbad, CA) and a stable CHO cell line expressing rat TRPV1 was generated using a constitutive expression system (Klionsky et al. [2007]). To enable a luminescence readout based on intracellular increase in calcium (Le Poul et al. [2002]), each cell line was also co-transfected with pcDNA3.1 plasmid containing jelly fish aequorin cDNA. Twenty-four hours before the assay, cells were seeded in 96-well plates and all TRP channel expression, except for TRPV1, was induced with 0.5 ug/mL tetracycline. […] Luminescence was measured by a CCD camera-based FLASH-luminometer built by Amgen, Inc. The following agonists were used to activate TRP channels: 0.5 uM capsaicin for TRPV1, 80 uM allyl isothiocyanate (AITC) for TRPA1, 1 uM icilin or cold buffer (12 °C) for TRPM8, 200 uM aminoethoxydiphenyl borate (2-APB) for TRPV3, and 1 uM 4α-phorbol 12,13-didecanoate (4α-PDD) for TRPV4. Antagonist IC50 values were calculated using GraphPad Prism 4.01 (GraphPad Software Inc, San Diego, CA).

[1] = Plasma protein binding by ultracentrifugation; format: in vitro ADME; details: male, rat plasma
Experimental: The unbound fraction in plasma was determined by ultracentrifugation.

SNL rats = experiment: SNL-induced tactile allodynia (von Frey, up-down method); format: in vivo, rat; details: 100 mg/kg p.o.; p > 0.05 vs vehicle (4.4 ± 1.2 g)
Experimental: SNL surgery was performed using aseptic surgical techniques and a stereomicroscope (Kim and Chung [1992]). Spinal nerve injury was caused by ligating the left L5 and L6 spinal nerves, with special care to avoid damage to the L4 spinal nerve or surrounding area. More specifically, under gaseous anesthesia with a mixture of O2 and isoflurane (3 % for induction and 2 % for maintenance), skin was excised and the longissimus lumborum muscle, part of articular processes (L4-S1), and the fascia above L6 spinal nerve were carefully removed. […]
Behavioral testing Two weeks post surgery, mechanical sensitivity was measured by determining the median 50 % foot withdrawal threshold for von Frey filaments using the up-down method (Chaplan et al. [1994]). […] To avoid possible reflex responses, only abrupt withdrawal of the foot accompanied by pain indicative behaviors (namely paw flinching, shaking, or licking for more than 2 s) was recorded as a response. […]
In vivo IC50 and IC90 estimates using WDS model data were determined by fitting a sigmoidal dose-response curve to individual animal number of WDS versus resulting plasma concentration. Behavioral and electrophysiological data are expressed as mean ± standard error of the mean (S.E.M.). Results were analyzed using one-way analysis of variance (ANOVA) with Dunnett’s multiple-comparisons post-hoc test for significance relative to vehicle. […]

C[C@H](NC(=O)N1CCc2cccnc2[C@H]1c1ccc(C(F)(F)F)cc1)C(F)(F)F [AMG2850, (R)-8-(4-(trifluoromethyl)phenyl)-N-((S)-1,1,1-trifluoropropan-2-yl)-5,6-dihydro-1,7-naphthyridine-7(8H)-carboxamide]
pIC50 (rat TRPV3): < 4.60 | fraction unbound at 15 min, 5 ug/mL [1]: 0.119 | tactile threshold (von Frey), SNL model (SNL rats): 5.8 ± 1.3 g
